For two compounds, inhibition results are on record in ChEMBL document CHEMBL4387741, “Optimization of novel reversible Bruton's tyrosine kinase inhibitors identified using Tethering-fragment-based screens” (Bioorg Med Chem, 2019).

Test [1] addresses Ribosomal protein S6 kinase alpha-3 (Homo sapiens) (UniProt P51812). The test is described as follows: Inhibition of wild-type human partial length C-terminal RSK2 kinase domain 2 (V402 to S715 residues) expressed in mammalian expression system at 1 uM by Kinomescan method relative to control.
For test [2], the target named is Serine/threonine-protein kinase PAK 3 (Homo sapiens) (UniProt O75914). The test is described as follows: Inhibition of wild-type human full length PAK3 (M1 to R544 residues) expressed in bacterial expression system at 1 uM by Kinomescan method relative to control.
For test [3], the target named is Ribosomal protein S6 kinase alpha-1 (Homo sapiens) (UniProt Q15418). The test is described as follows: Inhibition of wild-type human partial length C-terminal RSK1 kinase domain 2 (P360 to L681 residues) expressed in bacterial expression system at 1 uM by Kinomescan method relative to control.
Test [4] concerns the target Ribosomal protein S6 kinase beta-1 (Homo sapiens) (UniProt P23443). The test is described as follows: Inhibition of wild-type human partial length S6K1 (M1 to S421 residues) expressed in mammalian expression system at 1 uM by Kinomescan method relative to control.
The target in test [5] is Serine/threonine-protein kinase D2 (Homo sapiens) (UniProt Q9BZL6). The test is described as follows: Inhibition of wild-type human partial length PRKD2 (A519 to E838 residues) expressed in bacterial expression system at 1 uM by Kinomescan method relative to control.
Chain of Serine/threonine-protein kinase D2 (Homo sapiens) (Q9BZL6 whole entry, the tested form may be a part): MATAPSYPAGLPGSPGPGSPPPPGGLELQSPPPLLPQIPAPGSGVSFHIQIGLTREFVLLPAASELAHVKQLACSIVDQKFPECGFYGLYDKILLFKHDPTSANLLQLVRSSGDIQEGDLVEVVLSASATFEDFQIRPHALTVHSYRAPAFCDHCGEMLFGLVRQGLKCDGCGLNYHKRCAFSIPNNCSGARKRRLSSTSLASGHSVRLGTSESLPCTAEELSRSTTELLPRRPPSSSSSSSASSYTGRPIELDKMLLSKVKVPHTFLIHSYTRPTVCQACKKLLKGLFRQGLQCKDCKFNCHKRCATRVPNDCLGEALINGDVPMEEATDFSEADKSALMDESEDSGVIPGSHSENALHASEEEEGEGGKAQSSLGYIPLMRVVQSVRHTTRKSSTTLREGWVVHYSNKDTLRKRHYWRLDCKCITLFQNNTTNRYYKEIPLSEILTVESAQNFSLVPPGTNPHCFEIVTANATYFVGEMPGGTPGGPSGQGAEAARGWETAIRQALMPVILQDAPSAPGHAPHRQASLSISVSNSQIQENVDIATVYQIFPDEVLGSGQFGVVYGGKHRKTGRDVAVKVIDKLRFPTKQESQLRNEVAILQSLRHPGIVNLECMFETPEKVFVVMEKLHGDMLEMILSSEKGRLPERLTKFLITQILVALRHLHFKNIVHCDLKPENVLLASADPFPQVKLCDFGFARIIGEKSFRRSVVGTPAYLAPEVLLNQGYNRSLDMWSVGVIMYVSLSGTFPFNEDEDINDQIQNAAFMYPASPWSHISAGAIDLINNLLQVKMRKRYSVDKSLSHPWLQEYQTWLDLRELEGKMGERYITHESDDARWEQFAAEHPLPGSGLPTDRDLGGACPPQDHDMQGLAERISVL
Test [6] deals with Dual specificity mitogen-activated protein kinase kinase 2 (Homo sapiens) (UniProt P36507). The test is described as follows: Inhibition of wild-type human full length MEK2 (M1 to V400 residues) expressed in mammalian expression system at 1 uM by Kinomescan method relative to control.
Chain of Dual specificity mitogen-activated protein kinase kinase 2 (Homo sapiens) (P36507 whole entry, the tested form may be a part): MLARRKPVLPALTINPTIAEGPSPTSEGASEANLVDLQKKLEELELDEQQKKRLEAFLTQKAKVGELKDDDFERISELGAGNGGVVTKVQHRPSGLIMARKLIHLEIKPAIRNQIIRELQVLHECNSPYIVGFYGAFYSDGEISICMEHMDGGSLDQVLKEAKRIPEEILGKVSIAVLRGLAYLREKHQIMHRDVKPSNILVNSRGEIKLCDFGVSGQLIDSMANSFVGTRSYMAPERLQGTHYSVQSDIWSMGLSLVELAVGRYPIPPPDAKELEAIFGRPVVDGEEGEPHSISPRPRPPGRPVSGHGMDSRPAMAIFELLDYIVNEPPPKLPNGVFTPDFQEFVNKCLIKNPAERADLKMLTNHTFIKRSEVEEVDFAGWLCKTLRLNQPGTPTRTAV
Test [7] addresses Cyclin-dependent kinase 13 (Homo sapiens) (UniProt Q14004). The test is described as follows: Inhibition of wild-type human partial length CDC2L5 (H675 to S1054 residues) expressed in mammalian expression system at 1 uM by Kinomescan method relative to control.
Test [8] has as its target Serine/threonine-protein kinase Sgk2 (Homo sapiens) (UniProt Q9HBY8). The test is described as follows: Inhibition of wild-type human partial length SGK2 (L54 to C427 residues) expressed in mammalian expression system at 1 uM by Kinomescan method relative to control.
Test [9] deals with Tyrosine-protein kinase BTK (Homo sapiens, UniProt Q06187). The test is described as follows: Inhibition of wild-type human full length BTK (M1 to S659 residues) expressed in mammalian expression system at 1 uM by Kinomescan method relative to control.
Test [10] has as its target Cyclin-dependent kinase 2 homolog (Plasmodium falciparum (isolate 3D7)) (UniProt P61075). The test is described as follows: Inhibition of wild-type Plasmodium falciparum full length PK5 (M1 to N288 residues) expressed in mammalian expression system at 1 uM by Kinomescan method relative to control.
In test [11] the target is Mitogen-activated protein kinase 14 (Homo sapiens) (UniProt Q16539). The test is described as follows: Inhibition of wild-type human full length p38-alpha (M1 to S360 residues) expressed in bacterial expression system at 1 uM by Kinomescan method relative to control.
Chain of Mitogen-activated protein kinase 14 (Homo sapiens) (Q16539 whole entry, the tested form may be a part): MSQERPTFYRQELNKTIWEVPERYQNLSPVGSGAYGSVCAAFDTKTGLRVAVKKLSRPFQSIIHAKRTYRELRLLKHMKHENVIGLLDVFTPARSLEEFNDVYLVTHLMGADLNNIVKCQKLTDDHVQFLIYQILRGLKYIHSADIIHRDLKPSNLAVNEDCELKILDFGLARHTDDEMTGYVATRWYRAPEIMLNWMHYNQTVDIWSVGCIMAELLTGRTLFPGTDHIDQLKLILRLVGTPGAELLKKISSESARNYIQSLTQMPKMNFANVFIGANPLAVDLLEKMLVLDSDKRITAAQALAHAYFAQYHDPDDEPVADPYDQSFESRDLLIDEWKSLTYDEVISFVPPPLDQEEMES
Test [12] addresses Serine/threonine-protein kinase DCLK3 (Homo sapiens) (UniProt Q9C098). The test is described as follows: Inhibition of wild-type human partial length DCAMKL3 (E140 to V628 residues) expressed in bacterial expression system at 1 uM by Kinomescan method relative to control.
Test [13] deals with Tyrosine-protein kinase receptor Tie-1 (Homo sapiens) (UniProt P35590). The test is described as follows: Inhibition of wild-type human partial length TIE1 (T819 to A1138 residues) expressed in bacterial expression system at 1 uM by Kinomescan method relative to control.
The target of test [14] is Epidermal growth factor receptor (Homo sapiens) (UniProt P00533). The test is described as follows: Inhibition of wild-type human partial length EGFR (R669 to V1011 residues) expressed in bacterial expression system at 1 uM by Kinomescan method relative to control.
Chain of Epidermal growth factor receptor (Homo sapiens) (P00533 whole entry, the tested form may be a part): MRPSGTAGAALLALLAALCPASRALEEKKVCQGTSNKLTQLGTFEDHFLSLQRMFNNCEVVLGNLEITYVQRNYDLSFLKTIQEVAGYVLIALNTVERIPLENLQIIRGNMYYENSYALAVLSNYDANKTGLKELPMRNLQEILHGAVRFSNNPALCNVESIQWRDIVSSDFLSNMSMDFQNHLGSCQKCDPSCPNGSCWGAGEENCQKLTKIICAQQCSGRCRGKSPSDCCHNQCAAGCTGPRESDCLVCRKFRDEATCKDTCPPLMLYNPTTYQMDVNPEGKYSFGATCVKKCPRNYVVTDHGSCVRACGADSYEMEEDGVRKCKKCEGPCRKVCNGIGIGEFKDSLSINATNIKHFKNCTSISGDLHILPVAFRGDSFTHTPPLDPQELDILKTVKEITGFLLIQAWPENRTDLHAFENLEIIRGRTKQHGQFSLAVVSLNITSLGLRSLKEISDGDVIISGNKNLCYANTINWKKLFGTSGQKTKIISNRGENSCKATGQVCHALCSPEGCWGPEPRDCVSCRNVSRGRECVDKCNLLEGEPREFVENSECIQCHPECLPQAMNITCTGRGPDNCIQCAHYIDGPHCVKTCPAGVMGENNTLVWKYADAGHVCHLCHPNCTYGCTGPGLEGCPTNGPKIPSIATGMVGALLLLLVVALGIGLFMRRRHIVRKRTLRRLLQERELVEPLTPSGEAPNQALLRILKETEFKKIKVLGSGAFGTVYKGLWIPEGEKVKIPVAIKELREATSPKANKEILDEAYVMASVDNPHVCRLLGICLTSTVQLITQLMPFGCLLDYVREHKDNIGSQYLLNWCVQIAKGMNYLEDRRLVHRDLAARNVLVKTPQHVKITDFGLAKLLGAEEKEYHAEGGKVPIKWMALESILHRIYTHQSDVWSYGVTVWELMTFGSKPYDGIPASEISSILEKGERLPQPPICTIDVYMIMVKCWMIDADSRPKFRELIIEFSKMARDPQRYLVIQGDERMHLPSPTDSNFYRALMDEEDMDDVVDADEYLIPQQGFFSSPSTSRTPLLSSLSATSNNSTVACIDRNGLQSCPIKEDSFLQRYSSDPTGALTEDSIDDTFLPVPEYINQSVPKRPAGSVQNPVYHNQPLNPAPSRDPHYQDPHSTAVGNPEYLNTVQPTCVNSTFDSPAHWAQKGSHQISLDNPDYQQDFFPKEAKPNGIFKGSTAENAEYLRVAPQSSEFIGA
In test [15] the target is Mitogen-activated protein kinase 10 (Homo sapiens) (UniProt P53779). The test is described as follows: Inhibition of wild-type human partial length JNK3 (V28 to Q422 residues) expressed in mammalian expression system at 1 uM by Kinomescan method relative to control.
For test [16], the system named is Epidermal growth factor receptor (Homo sapiens), P00533 [UNDEFINED MUTATION]. The test is described as follows: Inhibition of human partial length EGFR E746-A750del mutant expressed in bacterial expression system at 1 uM by Kinomescan method relative to control.
Chain of Epidermal growth factor receptor (Homo sapiens), P00533 [UNDEFINED MUTATION] (P00533 whole entry, looked up, stated change not applied, the tested form may be a part): as the sequence (P00533 whole entry, the tested form may be a part) above
Test [17] deals with Serine/threonine-protein kinase PAK 4 (Homo sapiens) (UniProt O96013). The test is described as follows: Inhibition of wild-type human partial length PAK4 (Q144 to R438 residues) expressed in bacterial expression system at 10 uM by Kinomescan method relative to control.
Chain of Serine/threonine-protein kinase PAK 4 (Homo sapiens) (O96013 whole entry, looked up, the tested form may be a part): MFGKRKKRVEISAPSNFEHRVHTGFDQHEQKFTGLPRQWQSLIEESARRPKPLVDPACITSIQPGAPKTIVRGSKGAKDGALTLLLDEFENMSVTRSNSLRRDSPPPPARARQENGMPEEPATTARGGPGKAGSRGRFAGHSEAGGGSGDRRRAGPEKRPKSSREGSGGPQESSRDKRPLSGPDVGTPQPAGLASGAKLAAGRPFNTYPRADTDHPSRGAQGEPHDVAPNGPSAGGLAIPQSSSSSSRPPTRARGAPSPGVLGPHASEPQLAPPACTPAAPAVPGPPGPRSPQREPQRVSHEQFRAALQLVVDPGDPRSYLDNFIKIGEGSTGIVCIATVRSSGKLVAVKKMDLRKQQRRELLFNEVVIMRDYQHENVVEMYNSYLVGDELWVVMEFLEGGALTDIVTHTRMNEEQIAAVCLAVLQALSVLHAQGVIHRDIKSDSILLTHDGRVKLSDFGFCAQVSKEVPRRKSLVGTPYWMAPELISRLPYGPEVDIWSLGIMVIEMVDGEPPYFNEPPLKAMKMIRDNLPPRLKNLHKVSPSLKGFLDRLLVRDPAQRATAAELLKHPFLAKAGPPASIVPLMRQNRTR
The target in test [18] is Serine/threonine-protein kinase Nek10 (Homo sapiens) (UniProt Q6ZWH5). The test is described as follows: Inhibition of wild-type human partial length NEK10 (L488 to R809 residues) expressed in mammalian expression system at 10 uM by Kinomescan method relative to control.
The target of test [19] is Serine/threonine-protein kinase PLK2 (Homo sapiens) (UniProt Q9NYY3). The test is described as follows: Inhibition of wild-type human partial length PLK2 (H58 to F354 residues) expressed in mammalian expression system at 10 uM by Kinomescan method relative to control.
In test [20] the test system is Mast/stem cell growth factor receptor Kit (Homo sapiens), P10721 [UNDEFINED MUTATION]. The test is described as follows: Inhibition of human partial length KIT V559D/V654 double mutant (Y545 to D952 residues) expressed in bacterial expression system at 10 uM by Kinomescan method relative to control.
For test [21], the target named is Dual specificity mitogen-activated protein kinase kinase 2 (Homo sapiens) (UniProt P36507). The test is described as follows: Inhibition of wild-type human full length MEK2 (M1 to V400 residues) expressed in mammalian expression system at 10 uM by Kinomescan method relative to control.
The target in test [22] is NUAK family SNF1-like kinase 1 (Homo sapiens) (UniProt O60285). The test is described as follows: Inhibition of wild-type human partial length ARK5 (E25 to I332 residues) expressed in bacterial expression system at 10 uM by Kinomescan method relative to control.
For test [23], the target named is cGMP-dependent protein kinase 1 (Homo sapiens) (UniProt Q13976). The test is described as follows: Inhibition of wild-type human partial length PRKG1 (L339 to F686 residues) expressed in bacterial expression system at 10 uM by Kinomescan method relative to control.
The target in test [24] is Mitogen-activated protein kinase 11 (Homo sapiens) (UniProt Q15759). The test is described as follows: Inhibition of wild-type human full length p38-beta (M1 to Q364 residues) expressed in bacterial expression system at 10 uM by Kinomescan method relative to control.
Test [25] concerns the target BDNF/NT-3 growth factors receptor (Homo sapiens) (UniProt Q16620). The test is described as follows: Inhibition of wild-type human partial length TRKB (Q547 to G838 residues) expressed in mammalian expression system at 10 uM by Kinomescan method relative to control.
Test [26] has as its target Phosphatidylinositol 4,5-bisphosphate 3-kinase catalytic subunit gamma isoform (Homo sapiens) (UniProt P48736). The test is described as follows: Inhibition of wild-type human partial length PIK3CG (S144 to A1102 residues) expressed in mammalian expression system at 10 uM by Kinomescan method relative to control.
Test [27] concerns the target Serine/threonine-protein kinase MRCK alpha (Homo sapiens) (UniProt Q5VT25). The test is described as follows: Inhibition of wild-type human partial length MRCKA (L57 to V418 residues) expressed in bacterial expression system at 10 uM by Kinomescan method relative to control.

Chain of Serine/threonine-protein kinase Sgk2 (Homo sapiens) (Q9HBY8 whole entry, the tested form may be a part): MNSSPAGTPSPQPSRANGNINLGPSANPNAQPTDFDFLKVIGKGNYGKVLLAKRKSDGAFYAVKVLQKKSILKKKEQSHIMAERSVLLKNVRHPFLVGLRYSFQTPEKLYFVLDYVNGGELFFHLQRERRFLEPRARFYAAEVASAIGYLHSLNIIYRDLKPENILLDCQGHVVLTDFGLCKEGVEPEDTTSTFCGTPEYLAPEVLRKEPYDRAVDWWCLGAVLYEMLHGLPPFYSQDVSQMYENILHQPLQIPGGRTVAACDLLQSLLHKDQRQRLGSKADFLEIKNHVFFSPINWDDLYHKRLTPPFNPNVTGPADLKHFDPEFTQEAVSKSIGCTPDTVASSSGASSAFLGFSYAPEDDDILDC

`O=C(Nc1cccc([C@@H]2CN(c3ncnc4[nH]ccc34)CCN2CCO)c1)Nc1c(F)cccc1N1CCCC1`: the inhibition in test [1] was determined as 100%; in [2] it was 72%; in test [3], 88%; in [4], 48%; in test [5] it was 98%; in test [6] it was 73%. The inhibition in test [7] is 96%; in [8] it was 63%; in test [9] it was 0.3%; in test [10], 100%; in test [11] it was 100%; in test [12] it was 85%. Moreover, the inhibition in test [13] was 99%; in test [14] it was 100%; in test [15] it was 97%; in test [16] it was 97%.
Take `O=C(Nc1cccc([C@H]2CCCN(c3ncnc4[nH]ccc34)C2)c1)Nc1ccccc1N1CCCC1`: the inhibition stood at 54% in test [17]; 4.3% in test [18]; 78% in [19]; 26% in test [20]; 17% in test [21]; 25% in test [22]. Further, the inhibition amounted to 44% in test [23]; 100% in [24]; 69% in [25]; 75% in test [26]; 100% in test [27].

The term inhibition denotes the percentage by which the read-out fell short of the control.
